Measurements as given in paper PMC11967169 (RSC Advances, 2025).

Target: hepatocyte growth factor receptor (MET), exon 14 skipped (Homo sapiens, UniProt P08581, DEL963-1009)
Assay: PROTAC degradation of METex14Δ-GFP by live cell imaging in HEK293
Format: cell-based

- DC50: 2610 ± 115 nM
SMILES: COc1cc2c(Oc3ccc(NC(=O)C4(C(=O)Nc5ccc(F)cc5)CC4)cc3F)ccnc2cc1OCCCOCCCOCCC(=O)N[C@H](C(=O)N1C[C@H](O)C[C@H]1C(=O)NCc1ccc(-c2scnc2C)cc1)C(C)(C)C
